In data set [1] the target is NS3 protease (Hepacivirus C, UniProt C1KIQ2). Set-up: species or system Hepacivirus hominis.
The target in data set [2] is Carbonic anhydrase 2 (Bos taurus, UniProt P00921).
The nature of data set [3]: physchem.
In data set [4] the target is Delta-type opioid receptor (Homo sapiens, UniProt P41143).
For data set [5], the target named is Trypanothione reductase (Trypanosoma cruzi) (UniProt P28593).
The nature of data set [6]: physchem. As to conditions: buffer, pH 7.4.
Data set [7] addresses T1, Parathyroid hormone/parathyroid hormone-related peptide receptor (Homo sapiens, UniProt Q03431).
T1 sequence (Q03431 whole entry): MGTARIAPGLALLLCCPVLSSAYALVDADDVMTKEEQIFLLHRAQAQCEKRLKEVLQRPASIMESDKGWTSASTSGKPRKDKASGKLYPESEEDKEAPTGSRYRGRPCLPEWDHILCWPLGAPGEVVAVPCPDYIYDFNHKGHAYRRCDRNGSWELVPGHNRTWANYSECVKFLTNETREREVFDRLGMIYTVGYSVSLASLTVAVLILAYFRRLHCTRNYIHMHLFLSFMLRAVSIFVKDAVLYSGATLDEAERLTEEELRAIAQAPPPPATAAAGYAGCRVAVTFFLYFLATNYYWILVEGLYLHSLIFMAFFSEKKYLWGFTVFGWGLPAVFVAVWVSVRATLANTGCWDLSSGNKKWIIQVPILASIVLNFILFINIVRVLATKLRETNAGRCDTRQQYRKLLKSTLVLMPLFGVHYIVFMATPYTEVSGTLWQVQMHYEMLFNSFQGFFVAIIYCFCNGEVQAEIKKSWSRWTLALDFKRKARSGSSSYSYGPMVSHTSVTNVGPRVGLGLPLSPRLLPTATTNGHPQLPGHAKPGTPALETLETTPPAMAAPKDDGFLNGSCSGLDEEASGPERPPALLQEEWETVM

Data set [8] addresses T1, Parathyroid hormone/parathyroid hormone-related peptide receptor. The data set can be described thus: biochemical.
Data set [9] deals with T2, 3-oxo-5-alpha-steroid 4-dehydrogenase 1 (Homo sapiens, UniProt P18405).
T2 sequence (P18405 whole entry): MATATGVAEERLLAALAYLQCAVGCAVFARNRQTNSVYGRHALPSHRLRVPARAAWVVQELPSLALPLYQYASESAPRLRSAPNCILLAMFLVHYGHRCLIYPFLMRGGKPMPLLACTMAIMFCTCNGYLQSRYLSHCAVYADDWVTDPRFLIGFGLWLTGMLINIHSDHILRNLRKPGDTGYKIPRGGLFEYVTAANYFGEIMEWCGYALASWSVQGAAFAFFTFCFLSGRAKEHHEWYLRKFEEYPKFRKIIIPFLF

The target of data set [10] is T3, 3-oxo-5-alpha-steroid 4-dehydrogenase 2 (Homo sapiens, UniProt P31213).
T3 sequence (P31213 whole entry): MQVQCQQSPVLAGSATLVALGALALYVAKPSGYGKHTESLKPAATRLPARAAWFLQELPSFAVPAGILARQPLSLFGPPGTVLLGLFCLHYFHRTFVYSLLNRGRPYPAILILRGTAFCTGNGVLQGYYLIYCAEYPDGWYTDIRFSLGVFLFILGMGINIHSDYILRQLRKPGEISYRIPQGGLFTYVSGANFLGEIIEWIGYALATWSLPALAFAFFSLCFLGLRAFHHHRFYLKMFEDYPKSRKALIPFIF

For data set [11], the target named is T4, Steryl-sulfatase (Homo sapiens, UniProt P08842).
T4 sequence (P08842 whole entry): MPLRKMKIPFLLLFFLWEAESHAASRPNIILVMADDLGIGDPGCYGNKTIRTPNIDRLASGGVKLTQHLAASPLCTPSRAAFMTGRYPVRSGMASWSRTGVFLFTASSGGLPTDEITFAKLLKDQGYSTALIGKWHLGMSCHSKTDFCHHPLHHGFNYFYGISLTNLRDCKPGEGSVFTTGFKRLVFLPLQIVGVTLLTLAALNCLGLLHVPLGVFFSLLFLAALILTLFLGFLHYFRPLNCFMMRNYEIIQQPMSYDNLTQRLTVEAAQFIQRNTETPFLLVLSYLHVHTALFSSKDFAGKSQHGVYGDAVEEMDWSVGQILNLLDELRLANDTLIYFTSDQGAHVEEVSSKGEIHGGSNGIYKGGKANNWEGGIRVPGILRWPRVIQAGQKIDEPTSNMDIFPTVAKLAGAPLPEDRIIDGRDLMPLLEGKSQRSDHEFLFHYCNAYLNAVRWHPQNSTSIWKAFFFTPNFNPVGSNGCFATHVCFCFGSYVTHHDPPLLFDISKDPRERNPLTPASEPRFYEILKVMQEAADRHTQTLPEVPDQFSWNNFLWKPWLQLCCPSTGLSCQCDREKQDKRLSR

One may read the Ki as the equilibrium dissociation constant of an inhibitor or competing ligand from its target. The low end stands for tighter binding, the high end for weaker binding. Usually IC50 stands for the point on the concentration scale where inhibition reaches its midpoint. Usually pKa stands for the pH at which an ionisable group is half protonated. A low value points to a stronger acid or weaker base. Usually logD stands for the decadic logarithm of the distribution of all forms, ionised or not, between an organic phase and buffer at a given pH. The low end stands for lower lipophilicity, the high end for higher lipophilicity. For orientation: EC50 means the concentration needed to bring the measured effect to its halfway point. Read a low EC50 as an effect from little substance. One may read the Kd as the free concentration of one partner at which half of the binding sites on the other are occupied at equilibrium, for simple one-to-one binding. Low readings indicate tighter binding, high ones weaker binding.

Square brackets hold non-standard residues; d marks the D form. Peptide text beside a SMILES is read from it. * marks the point of attachment. X1 = CC(C)[C@H](/C=C(\Cl)[C@H](C)N)C(=O)*; Dip = N[C@H](C(=O)O)C(c1ccccc1)c1ccccc1; X4 = C[C@H](/C=C(\Cl)[C@H](C)N)C(=O)*; X2 = C[C@H](/C=C(\F)[C@H](C)N)C(=O)*; Abu(4,4-F2) = N[C@@H](CC(F)F)C(=O)O; PhLac = O=C(O)[C@@H](O)Cc1ccccc1; Cha = N[C@@H](CC1CCCCC1)C(=O)O; Abu = CC[C@H](N)C(=O)O

Trypanothione reductase (Trypanosoma cruzi), sequence (P28593 whole entry, looked up): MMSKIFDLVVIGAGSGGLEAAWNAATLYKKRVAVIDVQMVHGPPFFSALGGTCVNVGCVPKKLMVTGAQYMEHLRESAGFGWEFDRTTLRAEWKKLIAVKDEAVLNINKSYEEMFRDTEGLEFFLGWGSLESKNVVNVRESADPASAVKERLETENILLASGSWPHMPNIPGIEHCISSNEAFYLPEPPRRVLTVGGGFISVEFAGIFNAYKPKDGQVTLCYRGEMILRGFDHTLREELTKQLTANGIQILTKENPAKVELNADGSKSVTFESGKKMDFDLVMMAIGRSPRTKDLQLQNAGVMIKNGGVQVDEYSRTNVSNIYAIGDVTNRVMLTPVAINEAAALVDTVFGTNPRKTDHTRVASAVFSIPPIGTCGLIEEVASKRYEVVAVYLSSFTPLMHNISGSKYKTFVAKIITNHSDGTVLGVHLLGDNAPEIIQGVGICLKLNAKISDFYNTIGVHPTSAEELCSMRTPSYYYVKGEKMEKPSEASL
NS3 protease, sequence (C1KIQ2 whole entry): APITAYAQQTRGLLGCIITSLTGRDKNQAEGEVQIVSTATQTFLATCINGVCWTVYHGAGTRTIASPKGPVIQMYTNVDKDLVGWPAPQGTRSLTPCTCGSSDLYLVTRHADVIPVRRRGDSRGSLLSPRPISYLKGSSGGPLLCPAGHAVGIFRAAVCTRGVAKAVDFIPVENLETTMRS
Delta-type opioid receptor, sequence (P41143 whole entry): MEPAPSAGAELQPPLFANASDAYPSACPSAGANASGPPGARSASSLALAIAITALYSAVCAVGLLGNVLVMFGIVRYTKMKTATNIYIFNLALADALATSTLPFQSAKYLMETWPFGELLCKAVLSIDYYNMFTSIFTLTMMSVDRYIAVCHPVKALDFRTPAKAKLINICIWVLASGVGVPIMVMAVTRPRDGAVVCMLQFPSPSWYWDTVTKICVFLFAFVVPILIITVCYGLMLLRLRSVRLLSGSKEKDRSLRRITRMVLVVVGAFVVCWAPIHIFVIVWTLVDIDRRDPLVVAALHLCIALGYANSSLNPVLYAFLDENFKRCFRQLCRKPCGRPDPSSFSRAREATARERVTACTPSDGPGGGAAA
Carbonic anhydrase 2, sequence (P00921 whole entry): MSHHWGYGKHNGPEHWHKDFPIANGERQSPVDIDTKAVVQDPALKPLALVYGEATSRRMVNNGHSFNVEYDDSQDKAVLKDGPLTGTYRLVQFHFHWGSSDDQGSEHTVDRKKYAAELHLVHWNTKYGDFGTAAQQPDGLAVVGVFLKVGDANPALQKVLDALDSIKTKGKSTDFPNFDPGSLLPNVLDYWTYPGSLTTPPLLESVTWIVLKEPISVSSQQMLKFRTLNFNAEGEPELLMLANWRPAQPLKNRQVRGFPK

In data set [1], `CC(=O)N[C@@H](CC(=O)O)C(=O)N[C@@H](CCC(=O)O)C(=O)N[C@H](C(=O)N[C@@H](CCC(=O)O)C(=O)N[C@@H](CC1CCCCC1)C(=O)N[C@@H](CC(F)F)C(=O)O)C(c1ccccc1)c1ccccc1` (Ac-DE[Dip]E[Cha][Abu(4,4-F2)]-OH) registered an inhibition constant (Ki) of 30 nM.
Compound `NS(=O)(=O)C(F)c1ccccc1` (configuration not stated) showed a half-maximal inhibitory concentration (IC50) in [2] of 220 nM. This compound displayed a pKa in data set [3] of 8.8.
As to `CC(C)C[C@H](NC(=O)[C@H](Cc1ccccc1)OC(=O)CNC(=O)CNC(=O)[C@@H](N)Cc1ccc(O)cc1)C(=O)O` (H-YGG[PhLac]L-OH), the Ki in data set [4] amounted to 34 nM.
For `CC(C)(C)c1ccc(Nc2ccc(F)cc2NCCC[N+](C)(C)Cc2ccc(Cl)c(Cl)c2)cc1`, the Kic in data set [5] is 84 µM.
`CC[C@H](NC(=O)[C@H](CC1CCCCC1)NC(=O)[C@H](CCC(=O)O)NC(=O)[C@@H](NC(=O)[C@H](CCC(=O)O)NC(=O)[C@H](CC(=O)O)NC(C)=O)C(c1ccccc1)c1ccccc1)C(=O)O` (Ac-DE[Dip]E[Cha][Abu]-OH) had an inhibition constant Ki in [1] of 700 nM.
In data set [2], `NS(=O)(=O)Cc1ccccc1` [PHENYLMETHANESULFONAMIDE] returned an IC50 of 630 nM. The compound also came in with a pKa in [3] of 10.5.
For `NS(=O)(=O)C(F)(F)c1ccccc1` [PHENYLDIFLUOROMETHANESULFONAMIDE], in that order: 58 nM and 7.7.
On to `CC(C)C[C@H](NC(=O)[C@@H](/C=C(\F)CNC(=O)CNC(=O)[C@@H](N)Cc1ccc(O)cc1)Cc1ccccc1)C(=O)O`, for which the Ki in data set [4] is 43 nM. For the same compound, the logD in [6] was -0.11.
`CC(C)C[C@H](NC(=O)[C@@H](/C=C/CNC(=O)CNC(=O)[C@@H](N)Cc1ccc(O)cc1)Cc1ccccc1)C(=O)O` registered a Ki in data set [4] of 587 nM. The compound also yielded a logD in data set [6] of -0.07.
With `CC(C)C[C@H](NC(=O)[C@H](Cc1ccccc1)NC(=S)CNC(=O)CNC(=O)[C@@H](N)Cc1ccc(O)cc1)C(=O)O`, in [4], the affinity corresponds to a Ki of 47 nM.
Turning to `CC[C@H](C)[C@H](NC(=O)[C@H](CCC(=O)O)NC(=O)[C@H](CO)NC(=O)[C@H](C)/C=C(\F)[C@H](C)N)C(=O)N[C@@H](CCC(N)=O)C(=O)N[C@@H](CC(C)C)C(=O)N[C@@H](CCSC)C(=O)N[C@@H](Cc1c[nH]cn1)C(=O)N[C@@H](CC(N)=O)C(=O)N[C@@H](CC(C)C)C(=O)NCC(=O)N[C@@H](CCCCN)C(=O)N[C@@H](Cc1c[nH]cn1)C(=O)N[C@@H](CC(C)C)C(=O)N[C@@H](CC(N)=O)C(=O)N[C@@H](CO)C(=O)N[C@@H](CCSC)C(=O)N[C@@H](CCC(=O)O)C(=O)N[C@@H](CCCN=C(N)N)C(=O)N[C@H](C(=O)N[C@@H](CCC(=O)O)C(=O)N[C@@H](Cc1c[nH]c2ccccc12)C(=O)N[C@@H](CC(C)C)C(=O)N[C@@H](CCCN=C(N)N)C(=O)N[C@@H](CCCCN)C(=O)N[C@@H](CCCCN)C(=O)N[C@@H](CC(C)C)C(=O)N[C@@H](CCC(N)=O)C(=O)N[C@@H](CC(=O)O)C(=O)N[C@H](C(=O)N[C@@H](Cc1c[nH]cn1)C(=O)N[C@@H](CC(N)=O)C(=O)N[C@@H](Cc1ccccc1)C(=O)N[C@H](C(=O)N[C@@H](C)C(N)=O)C(C)C)C(C)C)C(C)C` (X2-SEIQLMHNLGKHLNSMERVEWLRKKLQDVHNFVA-NH2), a half-maximal effect in [7] (EC50) was put at 9.1 nM. In data set [8], the Kd is 6.31 nM.
With `C[C@]12C=CC(=O)N[C@@H]1CC[C@@H]1[C@@H]2CC[C@]2(C)[C@@H](C(=O)Nc3cc(C(F)(F)F)ccc3C(F)(F)F)CC[C@@H]12` [DUTASTERIDE], the half-maximal inhibitory concentration (IC50) in [9] was 4 nM; in data set [10] it was below 0.1 nM.
Consider `CC[C@H](C)[C@H](NC(=O)[C@H](CCC(=O)O)NC(=O)[C@H](CO)NC(=O)[C@H](C)/C=C(\Cl)[C@H](C)N)C(=O)N[C@@H](CCC(N)=O)C(=O)N[C@@H](CC(C)C)C(=O)N[C@@H](CCSC)C(=O)N[C@@H](Cc1c[nH]cn1)C(=O)N[C@@H](CC(N)=O)C(=O)N[C@@H](CC(C)C)C(=O)NCC(=O)N[C@@H](CCCCN)C(=O)N[C@@H](Cc1c[nH]cn1)C(=O)N[C@@H](CC(C)C)C(=O)N[C@@H](CC(N)=O)C(=O)N[C@@H](CO)C(=O)N[C@@H](CCSC)C(=O)N[C@@H](CCC(=O)O)C(=O)N[C@@H](CCCN=C(N)N)C(=O)N[C@H](C(=O)N[C@@H](CCC(=O)O)C(=O)N[C@@H](Cc1c[nH]c2ccccc12)C(=O)N[C@@H](CC(C)C)C(=O)N[C@@H](CCCN=C(N)N)C(=O)N[C@@H](CCCCN)C(=O)N[C@@H](CCCCN)C(=O)N[C@@H](CC(C)C)C(=O)N[C@@H](CCC(N)=O)C(=O)N[C@@H](CC(=O)O)C(=O)N[C@H](C(=O)N[C@@H](Cc1c[nH]cn1)C(=O)N[C@@H](CC(N)=O)C(=O)N[C@@H](Cc1ccccc1)C(=O)N[C@H](C(=O)N[C@@H](C)C(N)=O)C(C)C)C(C)C)C(C)C` (X4-SEIQLMHNLGKHLNSMERVEWLRKKLQDVHNFVA-NH2), for which a half-maximal effect in data set [7] (EC50) was put at 5.5 nM. Moreover, the affinity in data set [8], expressed as Kd, was 1.26 nM.
In turn, `C[C@]12CC[C@@H]3c4ccc(CS(N)(=O)=O)cc4CC[C@H]3[C@@H]1CCC2=O` gave a Ki in data set [11] of 350000 nM.
In the case of `C[N+](C)(CCCNc1cc(F)ccc1Nc1ccc(C(F)(F)F)cc1)Cc1ccc(Cl)c(Cl)c1`, the Kic in [5] was found to be 24 µM.
Turning to `CC(=O)N[C@@H](CC(=O)O)C(=O)N[C@@H](CCC(=O)O)C(=O)N[C@H](C(=O)N[C@@H](CCC(=O)O)C(=O)N[C@@H](CC1CCCCC1)C(=O)N[C@@H](CS)C(=O)O)C(c1ccccc1)c1ccccc1` (Ac-DE[Dip]E[Cha]C-OH), the Ki in data set [1] stood at 40 nM.
In data set [5], `C[N+](C)(CCCNc1cc(F)ccc1Nc1ccc(S(F)(F)(F)(F)F)cc1)Cc1ccc(Cl)c(Cl)c1` had a Kic of 28 µM.
`CC[C@H](C)[C@H](NC(=O)[C@H](CCC(=O)O)NC(=O)[C@H](CO)NC(=O)[C@@H](/C=C(\Cl)[C@H](C)N)C(C)C)C(=O)N[C@@H](CCC(N)=O)C(=O)N[C@@H](CC(C)C)C(=O)N[C@@H](CCSC)C(=O)N[C@@H](Cc1c[nH]cn1)C(=O)N[C@@H](CC(N)=O)C(=O)N[C@@H](CC(C)C)C(=O)NCC(=O)N[C@@H](CCCCN)C(=O)N[C@@H](Cc1c[nH]cn1)C(=O)N[C@@H](CC(C)C)C(=O)N[C@@H](CC(N)=O)C(=O)N[C@@H](CO)C(=O)N[C@@H](CCSC)C(=O)N[C@@H](CCC(=O)O)C(=O)N[C@@H](CCCN=C(N)N)C(=O)N[C@H](C(=O)N[C@@H](CCC(=O)O)C(=O)N[C@@H](Cc1c[nH]c2ccccc12)C(=O)N[C@@H](CC(C)C)C(=O)N[C@@H](CCCN=C(N)N)C(=O)N[C@@H](CCCCN)C(=O)N[C@@H](CCCCN)C(=O)N[C@@H](CC(C)C)C(=O)N[C@@H](CCC(N)=O)C(=O)N[C@@H](CC(=O)O)C(=O)N[C@H](C(=O)N[C@@H](Cc1c[nH]cn1)C(=O)N[C@@H](CC(N)=O)C(=O)N[C@@H](Cc1ccccc1)C(=O)N[C@H](C(=O)N[C@@H](C)C(N)=O)C(C)C)C(C)C)C(C)C` (X1-SEIQLMHNLGKHLNSMERVEWLRKKLQDVHNFVA-NH2) registered an EC50 in [7] of 7.9 nM. In addition, in data set [8], the dissociation constant (Kd) is 1.26 nM.

The record behind these values is ChEMBL document CHEMBL4371002 (J Med Chem, 2018).
